6 molecules from US5807981A (FibroGen Inc., priority 1995, dated 1998) can be followed below.

Residues, ends and D or L forms follow the SMILES beside them.

This assay concerns the target T1, C-proteinase (Homo sapiens, UniProt P13497).
T1 sequence (P13497 121-986): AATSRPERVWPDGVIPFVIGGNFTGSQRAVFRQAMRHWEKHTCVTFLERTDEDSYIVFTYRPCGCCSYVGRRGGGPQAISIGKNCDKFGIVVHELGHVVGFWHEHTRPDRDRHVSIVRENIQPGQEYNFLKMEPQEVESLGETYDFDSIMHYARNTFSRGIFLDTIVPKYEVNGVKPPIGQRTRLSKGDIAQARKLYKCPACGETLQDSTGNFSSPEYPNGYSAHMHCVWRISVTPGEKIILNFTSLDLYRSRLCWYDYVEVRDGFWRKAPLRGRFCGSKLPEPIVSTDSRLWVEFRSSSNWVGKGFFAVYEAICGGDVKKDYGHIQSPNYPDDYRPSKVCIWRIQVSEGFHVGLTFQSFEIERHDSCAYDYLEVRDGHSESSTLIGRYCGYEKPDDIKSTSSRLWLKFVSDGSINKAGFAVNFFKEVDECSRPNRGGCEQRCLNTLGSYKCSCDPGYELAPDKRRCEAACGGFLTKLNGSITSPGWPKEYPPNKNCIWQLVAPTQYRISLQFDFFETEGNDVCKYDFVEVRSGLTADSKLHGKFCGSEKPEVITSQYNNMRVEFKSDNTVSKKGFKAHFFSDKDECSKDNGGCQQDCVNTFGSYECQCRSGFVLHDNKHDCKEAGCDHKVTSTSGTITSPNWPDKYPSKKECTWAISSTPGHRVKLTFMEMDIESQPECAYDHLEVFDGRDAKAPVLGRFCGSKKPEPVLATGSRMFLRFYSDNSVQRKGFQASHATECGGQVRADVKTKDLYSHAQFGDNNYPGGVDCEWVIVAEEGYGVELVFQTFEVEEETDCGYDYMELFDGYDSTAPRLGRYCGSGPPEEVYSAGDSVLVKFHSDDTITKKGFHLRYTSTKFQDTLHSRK
As to the kind of experiment: Cleavage of synthetic procollagen cleavage-site peptides by active C-proteinase. The following applies: for Cleavability: Table 1, cleavability of peptides resembling the C-proteinase cleavage site of procollagen; for cleavability by C-proteinase: truncated and extended peptides compared with original peptide SEQ ID NO:6. The class given is biochemical. An excerpt: A variety of short peptides comprising five (5) to twelve (12) amino acids was synthesized and tested for cleavage by active C-proteinase.
First, four peptides, each comprising eight (8) amino acids corresponding to the cleavage region of several procollagens were synthesized. See, TABLE 1, SEQ ID NO:3, SEQ ID NO:4, SEQ ID NO:5, and SEQ ID NO:6. All four peptides were examined for cleavability by C-proteinase. […] Indeed, one would expect that recognition of the cleavage site depends on structural requirements which cannot be resembled by only eight (8) amino acids.
Second, a series of peptides was prepared based on the sequence of original peptide SEQ ID NO:6. Specifically, peptides were designed resembling the core of the peptide comprising SEQ ID NO:6, but with truncations of one, two and three amino acids from either side of the cleavage site. A further peptide was synthesized resembling two additional amino acids at both the N-terminus and C-terminus of the original peptide comprising SEQ ID NO:6.
Removing two or more amino acids from either end of the original SEQ ID NO:6 sequence, however, yielded a non-cleavable peptide (SEQ ID NOS:9, 10, 12, 13).

With `CSCC[C@H](NC(=O)[C@@H]1CCCN1C(=O)[C@H](CCC(=O)O)NC(=O)[C@H](CC(=O)O)NC(=O)CNC(=O)[C@H](Cc1ccc(O)cc1)NC(=O)[C@H](Cc1ccc(O)cc1)NC(C)=O)C(N)=O` [SEQ ID NO:11, Ac-YYG-DEPM-NH2] (Ac-YYGDEPM-NH2), the Cleavability result is on record as “excellent” and the “cleavability by C-proteinase” value is listed as “did not drastically alter its cleavability”.
For `CSCC[C@H](NC(=O)[C@@H]1CCCN1C(=O)[C@H](CCC(=O)O)NC(=O)[C@H](CC(=O)O)NC(=O)CNC(=O)[C@H](Cc1ccc(O)cc1)NC(C)=O)C(N)=O` [SEQ ID NO:12, Ac-YG-DEPM-NH2] (Ac-YGDEPM-NH2) the same measures were “none” and “non-cleavable”.
For `CC(=O)N1CCC[C@H]1C(=O)N[C@@H](Cc1ccc(O)cc1)C(=O)N[C@@H](Cc1ccc(O)cc1)C(=O)NCC(=O)N[C@@H](CC(=O)O)C(=O)N[C@@H](CCC(=O)O)C(=O)N1CCC[C@H]1C(N)=O` [SEQ ID NO:8, Ac-PYYG-DEP-NH2] (Ac-PYYGDEP-NH2) the same measures were “excellent” and “did not drastically alter its cleavability”.
As for `CSCC[C@H](NC(=O)[C@@H]1CCCN1C(=O)[C@H](CCC(=O)O)NC(=O)[C@H](CC(=O)O)NC(=O)CNC(=O)[C@H](Cc1ccc(O)cc1)NC(=O)[C@H](Cc1ccc(O)cc1)NC(=O)[C@@H]1CCCN1C(=O)[C@H](C)NC(=O)[C@H](Cc1ccccc1)NC(C)=O)C(=O)N[C@@H](CC(=O)O)C(=O)N[C@@H](Cc1ccccc1)C(N)=O` [SEQ ID NO:7, Ac-FAPYYG-DEPMDF-NH2] (Ac-FAPYYGDEPMDF-NH2), the Cleavability result is listed as “excellent” and the “cleavability by C-proteinase” value is on record as “did not impact its cleavability”.
For `CSCC[C@H](NC(=O)[C@@H]1CCCN1C(=O)[C@H](CCC(=O)O)NC(=O)[C@H](CC(=O)O)NC(=O)CNC(=O)[C@H](Cc1ccc(O)cc1)NC(=O)[C@H](Cc1ccc(O)cc1)NC(=O)[C@@H]1CCCN1C(C)=O)C(N)=O` [SEQ ID NO:6, Ac-PYYG-DEPM-NH2] (Ac-PYYGDEPM-NH2) the same measures were “excellent” and “cleaved much more efficiently than the three others”.
In the same order, the values of `CC(=O)N[C@@H](Cc1ccccc1)C(=O)N[C@@H](Cc1ccc(O)cc1)C(=O)N[C@@H](CCCNC(=N)N)C(=O)N[C@@H](C)C(=O)N[C@@H](CC(=O)O)C(=O)N[C@@H](CCC(N)=O)C(=O)N1CCC[C@H]1C(=O)N[C@@H](CCCNC(=N)N)C(N)=O` [SEQ ID NO:4, Ac-FYRA-DQPR-NH2] (Ac-FYRADQPR-NH2) are “slight” and “cleaved by C-proteinase”.
